Assay results as given in US12448394B2, “Heterocyclic pyrazole derivatives as type III receptor tyrosine kinase inhibitors” (DEVELOPMENT CENTER FOR BIOTECHNOLOGY, priority 2019, dated 2025).

Experiments:
[1] = molecular target: T1, FLT3-D835Y mutant kinase (Homo sapiens, UniProt P36888, D835Y); experiment: FLT3-D835Y mutant kinase assay (AlphaScreen); assay type: biochemical; conditions: read-out: Ranking of IC50 values, FLT3-D835Y
T1 construct: purchased SignalChem
T1 sequence (P36888 27-993 D835Y): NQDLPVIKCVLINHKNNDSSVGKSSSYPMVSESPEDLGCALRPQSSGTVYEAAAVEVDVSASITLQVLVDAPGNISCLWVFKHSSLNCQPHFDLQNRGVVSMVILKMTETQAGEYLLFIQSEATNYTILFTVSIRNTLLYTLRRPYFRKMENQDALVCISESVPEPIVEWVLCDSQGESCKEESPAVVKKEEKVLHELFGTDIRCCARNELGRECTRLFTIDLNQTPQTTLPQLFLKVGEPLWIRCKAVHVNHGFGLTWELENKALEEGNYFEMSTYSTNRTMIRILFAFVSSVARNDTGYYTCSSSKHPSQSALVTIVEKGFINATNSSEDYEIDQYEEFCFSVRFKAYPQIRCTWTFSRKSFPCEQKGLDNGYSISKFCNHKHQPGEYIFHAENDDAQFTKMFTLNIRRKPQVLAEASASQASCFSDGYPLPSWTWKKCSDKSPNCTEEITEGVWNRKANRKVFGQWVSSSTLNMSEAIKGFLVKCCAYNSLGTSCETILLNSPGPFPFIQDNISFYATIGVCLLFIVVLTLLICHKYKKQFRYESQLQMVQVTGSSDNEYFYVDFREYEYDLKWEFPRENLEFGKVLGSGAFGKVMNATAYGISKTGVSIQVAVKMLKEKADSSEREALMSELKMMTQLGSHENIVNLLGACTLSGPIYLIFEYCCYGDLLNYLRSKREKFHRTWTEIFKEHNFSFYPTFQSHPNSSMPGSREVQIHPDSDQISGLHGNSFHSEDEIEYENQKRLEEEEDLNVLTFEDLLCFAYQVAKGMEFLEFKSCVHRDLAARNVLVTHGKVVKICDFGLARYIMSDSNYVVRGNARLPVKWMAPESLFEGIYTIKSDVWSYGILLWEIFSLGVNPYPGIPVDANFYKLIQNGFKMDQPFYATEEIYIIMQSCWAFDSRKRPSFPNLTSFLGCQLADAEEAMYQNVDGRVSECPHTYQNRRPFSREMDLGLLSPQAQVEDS
Method: Inhibition of FLT3-D835Y mutant kinase activity by a test compound disclosed herein was estimated by AlphaScreen (PerkinElmer). Standard assay conditions were 1 ng of recombinant FLT3-D835Y mutant kinase (SignalChem) with 6 ng Biotin-conjugated Poly-(Glu 4: Tyr 1) (Cisbio) in the assay buffer (10 μM ATP, 10 mM MOPs, pH7.0, 0.21 mM EDTA, 0.5% glycerol, 1 mg/mL BSA, 0.01% 2-mercaptoethanol, 0.001% Brij35, 10 mM MgCl2) in a final volume of 25 μL. Reactions were incubated at 30° C. for 30 min and stopped by adding 5 μL of 50 mM EDTA. Analysis of resulting product using an AlphaScreen kit and counted with Enspire Alpha (PerkinElmer). […] The IC50 values of inhibitors were determined after carrying out assays with each compound at serially diluted concentrations in duplication. The results were analyzed using linear regression software (GraphPad Prism 5; GraphPad Software Inc.)

[2] = tested on: THP-1 human acute monocytic leukemia cell with NRAS G12D mutation; experiment: THP-1 cell proliferation assay (counter screen); assay type: cell-based; conditions: Homo sapiens, THP-1 cells, 72 hours treatment, CellTiter96, read-out: anti-proliferation activity THP-1 NRAS N12D, IC50 ranking
Method: Inhibitions of cell growths by compounds were measured using CellTiter™-96 assay. The cytotoxicities of compounds of the invention were evaluated in cell line panels with different signaling pathway dependencies, including MV4-11 human acute myeloid leukemia cell with FLT3-ITD mutation, Molm-14 human acute myeloid leukemia cell with FLT3-ITD mutation, THP-1 human acute monocytic leukemia cell with NRAS G12D mutation, A375 melanoma cell with BRAF V600E mutation, and HCC827 NSCLC cell with EGFR exon 19 deletion mutation.
THP-1 cells are human acute monocytic leukemia cells with NRAS G12D mutation, which renders the cell growth independent of class III RTKs signaling. THP-1 cells (catalog #TIB-202) were obtained from the ATCC. Briefly, cells were grown in RPMI 1640 medium supplemented with 10% heat inactivated fetal bovine serum and 0.05 mM 2-mercaptoethanol and incubated at 37° C. in 5% CO2 atmosphere. Cells were allowed to expand until reaching saturation, at which point they were sub-cultured or harvested for assay use.
MV4-11, Molm-14, THP-1, A375, and HCC827 cells were seeded into 96-well plates at 6500, 25000, 5000, 2000 and 8000 cells/well, respectively, and incubated at 37° C., 5% CO2 overnight. Then, these seeded cells were treated with increasing concentrations of the test compounds and incubated for another 72 hours. At the end of the incubation, CellTiter96® AQueous One Solution Reagent (Promega, […]) was added and incubated for the additional 2˜4 hours. Cell viability was determined by measuring absorbance at 490 nm using EMax® microplate reader (Molecular Devices, San Jose, CA, USA).

[3] = tested on: phosphorylation of FLT3 and its down-stream effector STAT5; experiment: Western blotting of p-FLT3 and p-STAT5 in MV4-11 cells; assay type: cell-based; conditions: Homo sapiens; at 30 nM treatment, 3 hours, FLT3-ITD positive MV4-11 leukemia cells; read-out: inhibition activity against phosphorylation of FLT3 and its down-stream effector STAT5
Method: The potent compounds of formula (I) in EXAMPLE 2 were evaluated, by western blotting assay, for their cellular potencies against phosphorylation of FLT3 and its down-stream effector STAT5 in MV4-11 leukemia cell line with constitutive activation of FLT3 signaling. For western blotting experiments, MV4-11 cells were cultured in IMDM medium containing 0.1% FBS overnight. On the assay day, three million cells were treated with or without compounds for 3 hours in 15 mL tubes. Then, the whole cell lysates were harvested, following extraction by adding 2×SDS Sample Buffer and boiling on hot plate at 105° C. for 15 minutes. The resulting cell lysates were separated by SDS-PAGE electrophoresis and transferred to PVDF membrane. Protein expression was detected using immunoblot with corresponding primary antibody and secondary antibody following the standard procedures. Antibody against p-FLT3 (Tyr-591), anti-rabbit IgG HRP-linked secondary antibody, and anti-mouse IgG HRP-linked secondary antibody were purchased from Cell Signaling Technology. Antibody against p-STAT5 (Tyr-694) was purchased from BD biosciences. Antibody against actin was purchased from R&D system. […] Band intensities of western blot were also quantified by ChemiDoc™ MP Imaging System. Relative intensities of bandscorresponding to drug treatments at a single concentration (30 nM) were compared to the DMSO control group. The percentage (%) inhibition at each drug concentration was calculated using the formula: Percentage(%)inhibition=(1−Relative intensity)×100.

| IC50 [1] | Compound | IC50 [2] | inhibition at 0.03 µM [3] |
| --- | --- | --- | --- |
| 1 to 10 nM | CN(C)c1ccc(-c2cc3c(s2)Cc2c(-c4ccc5cnn(C)c5c4)n[nH]c2-3)cn1 [Compound 5, N,N-dimethyl-5-(3-(1-methyl-1H-indazol-6-yl)-1,4-dihydrothieno [2′,3′:4,5]cyclopenta[1,2-c]pyrazol-6-yl)pyridin-2-amine] | > 10000 nM |  |
| < 1 nM | c1cc(-c2cc3c(s2)Cc2c(-c4ccc5cn[nH]c5c4)n[nH]c2-3)ccc1CN1CCOCC1 [Compound 6, 4-(4-(3-(1H-indazol-6-yl)-1,4-dihydrothieno[2′,3′:4,5]cyclopenta[1,2-c]pyrazol-6-yl)benzyl)morpholine] | > 10000 nM | > 50% |
| 1 to 10 nM | C[C@@H]1CN(Cc2ccc(-c3cc4c(s3)Cc3c(-c5ccc6cn[nH]c6c5)n[nH]c3-4)cc2)C[C@H](C)O1 [Compound 7, (2S,6R)-4-(4-(3-(1H-indazol-6-yl)-1,4-dihydrothieno[2′,3′:4,5]cyclopenta [1,2-c]pyrazol-6-yl)benzyl)-2,6-dimethylmorpholine] | > 10000 nM | > 50% |
| < 1 nM | Cc1ccc(-c2cc3c(s2)Cc2c(-c4ccc5cnn(C)c5c4)n[nH]c2-3)cn1 [Compound 11, 3-(1-methyl-1H-indazol-6-yl)-6-(6-methylpyridin-3-yl)-1,4-dihydrothieno [2′,3′:4,5]cyclopenta[1,2-c] pyrazole] | > 10000 nM |  |
| 1 to 10 nM | CN1CCN(Cc2cccc(-c3cc4c(s3)Cc3c(-c5ccc6cnn(C)c6c5)n[nH]c3-4)c2)CC1 [Compound 14, 3-(1-methyl-1H-indazol-6-yl)-6-(3-((4-methylpiperazin-1-yl)methyl)phenyl)-1,4-dihydrothieno [2′,3′:4,5]cyclopenta[1,2-c] pyrazole] | > 10000 nM |  |
| 1 to 10 nM | Cc1cc(-c2cc3c(s2)Cc2c(-c4ccc5cnn(C)c5c4)n[nH]c2-3)ccc1CN1CCOCC1 [Compound 26, 4-(2-methyl-4-(3-(1-methyl-1H-indazol-6-yl)-1,4-dihydrothieno[2′,3′:4,5]cyclopenta[1,2-c]pyrazol-6-yl)benzyl)morpholine] | > 10000 nM |  |
| 1 to 10 nM | Cn1ncc2ccc(-c3n[nH]c4c3Cc3sc(-c5ccc(CN6CCOCC6)c(C(F)(F)F)c5)cc3-4)cc21 [Compound 27, 4-(4-(3-(1-methyl-1H-indazol-6-yl)-1,4-dihydrothieno[2′,3′:4,5]cyclopenta[1,2-c]pyrazol-6-yl)-2-(trifluoromethyl)benzyl)morpholine] | > 10000 nM |  |
| 1 to 10 nM | CC(C)Cn1ncc2ccc(-c3n[nH]c4c3Cc3sc(-c5ccc(CN6CCOCC6)cc5)cc3-4)cc21 [Compound 35, 4-(4-(3-(1-isobutyl-1H-indazol-6-yl)-1,4-dihydro-thieno[2′,3′:4,5]cyclopenta [1,2-c]pyrazol-6-yl)benzyl)morpholine] | 1000 to 10000 nM |  |
| 1 to 10 nM | Cn1ncc2ccc(-c3n[nH]c4c3Cc3sc(-c5ccc(CN6CCC(F)(F)C6)cc5)cc3-4)cc21 [Compound 67, 6-(4-((3,3-difluoro-pyrrolidin-1-yl)methyl)phenyl)-3-(1-methyl-1H-indazol-6-yl)-1,4-dihydro-thieno[2′,3′:4,5]cyclopenta [1,2-c]pyrazole] | > 10000 nM |  |
| < 1 nM | Cn1ncc2ccc(-c3n[nH]c4c3Cc3sc(-c5cccc(OCCN6CCOCC6)c5)cc3-4)cc21 [Compound 70, 4-(2-(3-(3-(1-methyl-1H-indazol-6-yl)-1,4-dihydro-thieno[2′,3′:4,5]cyclopenta [1,2-c]pyrazol-6-yl)phenoxy)ethyl)morpholine] | > 10000 nM |  |
| 1 to 10 nM | CN(c1ccc(-c2cc3c(s2)Cc2c(-c4ccc5cnn(C)c5c4)n[nH]c2-3)cc1)C1CCOCC1 [Compound 73, N-methyl-N-(4-(3-(1-methyl-1H-indazol-6-yl)-1,4-dihydrothieno [2′,3′:4,5]cyclopenta [1,2-c]pyrazol-6-yl)phenyl)tetrahydro-2H-pyran-4-amine] | > 10000 nM |  |
| 1 to 10 nM | Cn1ncc2ccc(-c3n[nH]c4c3Cc3sc(-c5ccc(C=C6CCOCC6)cc5)cc3-4)cc21 [Compound 76, 3-(1-methyl-1H-indazol-6-yl)-6-(4-((tetrahydro-4H-pyran-4-ylidene)methyl)phenyl)-1,4-dihydrothieno[2′,3′:4,5] cyclopenta[1,2-c]pyrazole] | > 10000 nM |  |
| 1 to 10 nM | Cn1ncc2ccc(-c3n[nH]c4c3Cc3sc(-c5ccc(CC6CCOCC6)cc5)cc3-4)cc21 [Compound 77, 3-(1-methyl-1H-indazol-6-yl)-6-(4-((tetrahydro-2H-pyran-4-yl)methyl)phenyl)-1,4-dihydrothieno [2′,3′:4,5]cyclopenta [1,2-c]pyrazole] | 1000 to 10000 nM |  |
| < 1 nM | Cn1ncc2ccc(-c3n[nH]c4c3Cc3sc(-c5ccc(CN6CCOCC6)cn5)cc3-4)cc21 [Compound 95, 4-((6-(3-(1-methyl-1H-indazol-6-yl)-1,4-dihydro-thieno[2′,3′:4,5]cyclopenta [1,2-c]pyrazol-6-yl)pyridin-3-yl)methyl) morpholine] |  | > 50% |
| 1 to 10 nM | Cn1ncc2ccc(-c3n[nH]c4c3Cc3sc(-c5ccc(CN6CC(F)(F)C6)cc5)cc3-4)cc21 [Compound 104, 6-(4-((3,3-difluoroazeti-din-1-yl)methyl)phenyl)-3-(1-methyl-1H-indazol-6-yl)-1,4-dihydrothieno [2′,3′:4,5]cyclopenta [1,2-c]pyrazole] | 1000 to 10000 nM |  |
